Type in all cases: cell-based
The test system of assay [1] is primary lymphocytic tumor cells taken from patients with chronic lymphatic leukemia (LLC). Briefly: Proapoptotic effect by annexin V/propidium iodide flow cytofluorometry, LLC cells. The following applies: Homo sapiens, 24 hours incubation, three experiments in triplicate, read-out: IC50 ± S.D. (concentration required to cause 50% apoptosis), LLC. The source says: (§1) Flow cytofluorometry was used to evaluate the ability of some compounds of the invention to induce cell death, with particular reference to apoptosis. This latter phenomenon is characterized by morphological modification of the plasmatic membrane as a result of the translocation of the phospholipid phosphatidylserine (PS) in the plasmatic membrane from the cytoplasmic side to the outer surface of the cell. […] Annexin is detected because it is conjugated to a specific fluorochrome, thus allowing to distinguish apoptosis from necrotic phenomena, which are instead measured by the fluorescent dye propidium iodide, which penetrates freely in the cell having a damaged plasmatic membrane.
(§2) Both primary lymphocytic tumor cells taken from patients with chronic lymphatic leukemia (LLC) and humanized cell lines of neuroblastoma (SK-N-BE), hepatocarcinoma (HepG2 and HUH7.5) and breast cancer (MDA-MB-231) were used.
(§3) HepG2 (2×10^5 cells per well), HUH7.5 and MDA-MB-231 (1.5×10^5 cells per well) cells were seeded on a 6-well plate in Dulbecco's Modified Eagle Medium (DMEM), 10% FBS and cultured at 37° C. in a 5% CO2 atmosphere. After 24 hours, the medium was removed and replaced by DMEM containing the test compounds, previously dissolved in 100% dimethylsulfoxide, and diluted such that the final concentration of the same in cell incubation solutions was 0.5% (v/v). After 30 minutes incubation, 10% FBS was added, and the cells were incubated for 24 hours, then detached with trypsin, and analyzed by cytofluorimeter. LLC cells (1×10^6 cells per well) were seeded and cultured on 12-well plates in RPMI-1640 medium, 10% FBS, at 37° C. in a humified atmosphere containing 5% CO2. To this medium, test compounds were added, and incubation was carried out for 24 hours, after which time the cells were analyzed by cytofluorimeter.
Leukemic lymphocytes were isolated, following heparinized venous withdrawal from peripheral blood of LLC patients, diluted with saline in a 1:3 ratio, layered on a Ficoll/Hypaque (F/H) density gradient, centrifuged at 900 rpm for 20 minutes, at 20° C. without brakes. Mononuclear cells and platelets, concentrating on top of the F/H gradient, were separated after 2 further washings, with centrifugation at 400 rpm at room temperature. The mononuclear cells thus obtained were washed 3 times with PBS, centrifuged for 10 minutes at 400 rpm, at 20° C. with brakes, and resuspended in RPMI 1640.
In most LLC cases, the percentage of leukemic B cells was higher than 85% with respect to all mononuclear cells from peripheral blood.
(§4) The results obtained by cytofluorometry from three separate experiments executed in triplicate were tabulated, estimating the concentration required to cause 50% apoptosis (IC50), and standard deviation.

Assay [2] has as its system hepatocarcinoma (HUH7.5) cells. Briefly: Proapoptotic effect by flow cytofluorometry, HUH7.5 cells. The following applies: Homo sapiens, 24 hours incubation, three experiments in triplicate, read-out: IC50 ± S.D. (concentration required to cause 50% apoptosis), HUH7.5.
Description: as §1, §2, §3, §4

The test system of assay [3] is neuroblastoma (SK-N-BE) cells. Nature of the assay: Proapoptotic effect by flow cytofluorometry, SK-N-BE cells. The following applies: Homo sapiens, three experiments in triplicate, read-out: IC50 ± S.D. (concentration required to cause 50% apoptosis), SK-N-BE.
Description: as §1
Both primary lymphocytic tumor cells taken from patients with chronic lymphatic leukemia (LLC) and humanized cell lines of neuroblastoma (SK-N-BE), hepatocarcinoma (HepG2 and HUH7.5) and breast cancer (MDA-MB-231) were used. […]
as §4

Assay [4] concerns hepatocarcinoma (HepG2) cells. Nature of the assay: Proapoptotic effect by flow cytofluorometry, HepG2 cells. The following applies: Homo sapiens, 24 hours incubation, three experiments in triplicate, read-out: IC50 ± S.D. (concentration required to cause 50% apoptosis), HepG2.
Description: as §1, §2, §3, §4

For assay [5], the system named is breast cancer (MDA-MB-231) cells. Briefly: Proapoptotic effect by flow cytofluorometry, MDA-MB-231 cells. The following applies: Homo sapiens, 24 hours incubation, three experiments in triplicate, read-out: IC50 ± S.D. (concentration required to cause 50% apoptosis), MDA-MB-231.
Description: as §1, §2, §3, §4

As to `CCCCC[Se]c1ccc(C(=O)CCN2CCOCC2)cc1` [Compound 15, 3-morpholino-1-(4-(pentylselenyl)phenyl)propan-1-one], the IC50 came to 14200 ± 170 nM in assay [1]; 12200 ± 80 nM in assay [2]; 15710 ± 130 nM in assay [3]; 11110 ± 70 nM in assay [4]; 13900 ± 140 nM in assay [5].

`CCCCC[Se]c1ccc(C(=O)CCN2CCCCC2)cc1` [Compound 18, 1-(4-(pentylselenyl)phenyl)-3-(piperidin-1-yl)propan-1-one]: the IC50 is 8500 ± 150 nM in assay [1]; 8300 ± 80 nM in assay [2]; 8000 ± 100 nM in assay [3]; 7500 ± 150 nM in assay [4]; 7900 ± 100 nM in assay [5].

On to `CCCCCCCSc1ccc(C(=O)CCN2CCN(C)CC2)cc1` [Compound 14, 1-(4-(heptylthio)phenyl)-3-(4-methylpiperazin-1-yl)propan-1-one], for which the IC50 in assay [1] was found to be 440 ± 60 nM; in assay [2] it was 520 ± 100 nM; in assay [3], 450 ± 70 nM; in assay [4], 500 ± 90 nM; in assay [5], 470 ± 100 nM.

As to `CCCCCCCSc1ccc(C(=O)CCN2CCCCC2)cc1` [Compound 11, 1-(4-(heptylthio)phenyl)-3-(piperidin-1-yl)propan-1-one], the IC50 in assay [1] was 500 ± 40 nM; in assay [2], 490 ± 70 nM; in assay [3], 540 ± 90 nM; in assay [4], 590 ± 10 nM; in assay [5], 560 ± 60 nM.

For `CCCCCCOc1ccc(C(=O)CCN2CCOCC2)cc1` [Compound 1, 1-(4-(hexyloxy)phenyl)-3-morpholinopropan-1-one], the IC50 came to 1610 ± 100 nM in assay [1]; 1580 ± 70 nM in assay [2]; 1850 ± 90 nM in assay [3]; 1670 ± 150 nM in assay [4]; 1610 ± 80 nM in assay [5].

Regarding `CCCCCCSc1ccc(C(=O)CCN2CCCCC2)cc1` [Compound 10, 1-(4-(hexylthio)phenyl)-3-(piperidin-1-yl)propan-1-one], the IC50 stood at 1870 ± 70 nM in assay [1]; 1800 ± 110 nM in assay [2]; 1670 ± 50 nM in assay [3]; 1700 ± 50 nM in assay [4]; 1800 ± 90 nM in assay [5].

As to `CCCCCC[Se]c1ccc(C(=O)CCN2CCN(C)CC2)cc1` [Compound 22, 1-(4-(hexylselenyl)phenyl)-3-(4-methylpiperazin-1-yl)propan-1-one], the IC50 in assay [1] amounted to 8150 ± 70 nM; in assay [2], 8000 ± 60 nM; in assay [3] it was 8200 ± 70 nM; in assay [4], 8100 ± 100 nM; in assay [5] it was 8100 ± 70 nM.

Take `CCCCCC[Se]c1ccc(C(=O)CCN2CCOCC2)cc1` [Compound 16, 1-(4-(hexylselenyl)phenyl)-3-morpholinopropan-1-one]: the IC50 amounted to 2530 ± 90 nM in assay [1]; 2600 ± 100 nM in assay [2]; 2470 ± 60 nM in assay [3]; 2620 ± 80 nM in assay [4]; 2580 ± 90 nM in assay [5].

Turning to `CCCCCCCOc1ccc(C(=O)CCN2CCN(C)CC2)cc1` [Compound 5, 1-(4-(heptyloxy)phenyl)-3-(4-methylpiperazin-1-yl)propan-1-one], the IC50 in assay [1] came out at 1450 ± 60 nM; in assay [2], 1610 ± 80 nM; in assay [3] it was 1550 ± 100 nM; in assay [4] it was 1600 ± 50 nM; in assay [5], 1480 ± 90 nM.

Take `CCCCCSc1ccc(C(=O)CCN2CCOCC2)cc1` [Compound 6, 3-morpholino-1-(4-(pentylthio)phenyl)propan-1-one]: the IC50 amounted to 8500 ± 80 nM in assay [1]; 8250 ± 120 nM in assay [2]; 8200 ± 100 nM in assay [3]; 8000 ± 100 nM in assay [4]; 8000 ± 70 nM in assay [5].

As to `CCCCCCSc1ccc(C(=O)CCN2CCN(C)CC2)cc1` [Compound 13, 1-(4-(hexylthio)phenyl)-3-(4-methylpiperazin-1-yl)propan-1-one], the IC50 in assay [1] stood at 650 ± 10 nM; in assay [2], 600 ± 120 nM; in assay [3] it was 670 ± 90 nM; in assay [4] it was 590 ± 60 nM; in assay [5], 650 ± 10 nM.

Take `CCCCCCCSc1ccc(C(=O)CCN2CCOCC2)cc1` [Compound 8, 1-(4-(heptylthio)phenyl)-3-morpholinopropan-1-one]: the IC50 in assay [1] came to 550 ± 90 nM; in assay [2], 630 ± 80 nM; in assay [3], 600 ± 50 nM; in assay [4], 570 ± 80 nM; in assay [5], 660 ± 120 nM.

Turning to `CCCCCCC[Se]c1ccc(C(=O)CCN2CCCCC2)cc1` [Compound 20, 1-(4-(heptylselenyl)phenyl)-3-(piperidin-1-yl)propan-1-one], the IC50 amounted to 1700 ± 50 nM in assay [1]; 1730 ± 90 nM in assay [2]; 1680 ± 130 nM in assay [3]; 1740 ± 50 nM in assay [4]; 1750 ± 100 nM in assay [5].

Turning to `CCCCCC[Se]c1ccc(C(=O)CCN2CCCCC2)cc1` [Compound 19, 1-(4-(hexylselenyl)phenyl)-3-(piperidin-1-yl)propan-1-one], the IC50 in assay [1] stood at 10100 ± 80 nM; in assay [2], 11980 ± 110 nM; in assay [3], 11650 ± 60 nM; in assay [4], 12480 ± 120 nM; in assay [5], 13010 ± 120 nM.

In the case of `CCCCCCCc1ccc(C(=O)CCN2CCCCC2)cc1` [Compound 25, 1-(4-heptylphenyl)-3-(piperidin-1-yl)propan-1-one], the IC50 came out at 1500 ± 80 nM in assay [1]; 1500 ± 100 nM in assay [2]; 1600 ± 100 nM in assay [3]; 1550 ± 90 nM in assay [4]; 1650 ± 750 nM in assay [5].

With `CCCCCCCc1ccc(C(=O)CCN2CCN(C)CC2)cc1` [Compound 26, 1-(4-heptylphenyl)-3-(4-methylpiperazin-1-yl)propan-1-one], the IC50 turned out to be 850 ± 60 nM in assay [1]; 950 ± 60 nM in assay [2]; 750 ± 130 nM in assay [3]; 800 ± 70 nM in assay [4]; 900 ± 50 nM in assay [5].

For the compound `CCCCCCSc1ccc(C(=O)CCN2CCOCC2)cc1` [Compound 7, 1-(4-(hexylthio)phenyl)-3-morpholinopropan-1-one], the IC50 was determined as 500 ± 200 nM in assay [1]; 560 ± 200 nM in assay [2]; 530 ± 90 nM in assay [3]; 490 ± 110 nM in assay [4]; 500 ± 200 nM in assay [5].

In the case of `CCCCCCCOc1ccc(C(=O)CCN2CCOCC2)cc1` [Compound 2, 1-(4-(heptyloxy)phenyl)-3-morpholinopropan-1-one], the IC50 worked out at 1620 ± 150 nM in assay [1]; 1580 ± 100 nM in assay [2]; 1640 ± 90 nM in assay [3]; 1550 ± 130 nM in assay [4]; 1610 ± 70 nM in assay [5].

Regarding `CCCCCCCOc1ccc(C(=O)CCN2CCCCC2)cc1` [Compound 4, 1-(4-(heptyloxy)phenyl)-3-(piperidin-1-yl)propan-1-one], the IC50 in assay [1] came to 3030 ± 70 nM; in assay [2] it was 2780 ± 130 nM; in assay [3] it was 2930 ± 80 nM; in assay [4], 3000 ± 150 nM; in assay [5], 3010 ± 150 nM.

Turning to `CCCCCCC[Se]c1ccc(C(=O)CCN2CCN(C)CC2)cc1` [Compound 23, 1-(4-(heptylselenyl)phenyl)-3-(4-methylpiperazin-1-yl)propan-1-one], the IC50 stood at 1770 ± 50 nM in assay [1]; 1690 ± 80 nM in assay [2]; 1750 ± 90 nM in assay [3]; 1700 ± 50 nM in assay [4]; 1700 ± 90 nM in assay [5].

For the compound `CCCCCCC[Se]c1ccc(C(=O)CCN2CCOCC2)cc1` [Compound 17, 1-(4-(heptylselenyl)phenyl)-3-morpholinopropan-1-one], the IC50 in assay [1] was found to be 550 ± 40 nM; in assay [2] it was 500 ± 100 nM; in assay [3] it was 500 ± 60 nM; in assay [4], 600 ± 70 nM; in assay [5] it was 550 ± 70 nM.

For the compound `CCCCCSc1ccc(C(=O)CCN2CCN(C)CC2)cc1` [Compound 12, 3-(4-methylpiperazin-1-yl)-1-(4-(pentylthio)phenyl)propan-1-one], the IC50 is 12200 ± 110 nM in assay [1]; 14540 ± 120 nM in assay [2]; 13170 ± 120 nM in assay [3]; 12950 ± 50 nM in assay [4]; 11850 ± 70 nM in assay [5].

For the origin of these results see patent publication US11345673B2, “1-phenylpropanone compounds and use thereof” (UNIVERSITA' DEGLI STUDI DI PADOVA, priority 2016, dated 2022).
